Reference: patent US20260062376A1, “SQUARAMIDE DERIVATIVES AS CB1 ALLOSTERIC MODULATORS” (RESEARCH TRIANGLE INSTITUTE, priority 2022, published 2026)

The compounds below were run against T1, Human CB1 (Homo sapiens (Human), UniProt P21554) (assay: Human CB1 HEK293 membrane [35S]GTPγS binding assay). Settings: HEK293 membranes expressing human CB1; in presence of CP55,940; mean ± SEM; read-out: Human CB1 HEK293 membrane [35S]GTPγS binding assay pIC50 ± SEM (converted).
Format: biochemical
Method: Non-specific binding was determined by adding 30 μM unlabeled GTPγS.
(§1) Data Analysis: For calcium mobilization experiments, data were fit to a three-parameter logistic curve to generate IC50 values (GraphPad Prism 6.0, Graphpad Software, San Diego, California, United States of America). For [^35S]GTPγS experiments, data were normalized to maximal CP55,940 (100 nM) stimulation in the absence of test compound (i.e., vehicle=100%).

T1 sequence (P21554 whole entry): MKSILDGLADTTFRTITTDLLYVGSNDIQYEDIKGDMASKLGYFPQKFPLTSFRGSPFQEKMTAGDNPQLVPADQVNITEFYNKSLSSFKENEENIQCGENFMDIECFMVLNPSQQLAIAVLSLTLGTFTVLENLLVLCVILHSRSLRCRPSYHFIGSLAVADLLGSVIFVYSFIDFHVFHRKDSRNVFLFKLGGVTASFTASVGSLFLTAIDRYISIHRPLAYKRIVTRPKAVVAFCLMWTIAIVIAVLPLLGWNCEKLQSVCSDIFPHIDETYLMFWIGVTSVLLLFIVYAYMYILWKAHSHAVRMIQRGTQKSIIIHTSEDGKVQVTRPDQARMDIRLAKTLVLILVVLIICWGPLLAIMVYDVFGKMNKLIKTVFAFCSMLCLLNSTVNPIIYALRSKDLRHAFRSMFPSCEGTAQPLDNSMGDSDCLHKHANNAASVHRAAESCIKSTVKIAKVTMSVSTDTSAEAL

Structure (SMILES)	IC50 [nM]
N#Cc1ccc(Nc2c(NCCc3cccc(Cl)c3)c(=O)c2=O)cc1 [Compound 28, 4-[(2-{[2-(3-Chlorophenyl)ethyl]amino}-3,4-dioxocyclobut-1-en-1-yl)amino]benzonitrile]	398
O=c1c(NCCc2ccccc2)c(Nc2ccc(Cl)cc2)c1=O [Compound 11, 3-[(4-Chlorophenyl)amino]-4-[(2-phenylethyl)amino]cyclobut-3-ene-1,2-dione]	776

What follows are compounds tested against T1, Human CB1 (assay: Calcium mobilization assay (antagonist mode vs CP55,940)). Settings: CHO-RD-HGA16 cells stably expressing human CB1; against EC50 concentration of CP55,940; mean ± SEM, at least three experiments.
Format: cell-based
Method: Calcium Mobilization Assay: CHO-RD-HGA16 cells (Molecular Devices, San Jose, California, United States of America) stably expressing the human CB1 receptor were plated into 96-well black-walled assay plates at 25,000 cells/well in 100 μL of Ham's F12 (supplemented with 10% fetal bovine serum, 100 units of penicillin/streptomycin, and 100 μg/mL Normocin) and incubated overnight at 37° C., 5% CO2. Calcium 5 dye (Molecular Devices, San Jose, California, United States of America) was reconstituted according to the manufacturer's instructions. The reconstituted dye was diluted 1:40 in prewarmed (37° C.) assay buffer (lx HBSS, 20 mM HEPES, 2.5 mM probenecid, pH 7.4 at 37° C.). Growth medium was removed, and the cells were gently washed with 100 μL of prewarmed (37° C.) assay buffer. […] After the pretreatment incubation period, the plate was read with a FLIPR Tetra (Molecular Devices, San Jose, California, United States of America). […] Relative fluorescence units (RFU) were plotted against the log of compound concentrations. […] Test compound RFUs were compared to the CP55,940 Emax RFUs to generate % Emax values. For the CB2 agonist and antagonist assays, the same procedures were followed except that stable human CB2—CHO-RD-HGA16 cells were used.
as §1

Structure (SMILES)	IC50 [nM]
O=c1c(NCCc2cccc(O)c2)c(Nc2ccc(Cl)cc2)c1=O [Compound 43, 3-[(4-Chlorophenyl)amino]-4-{[2-(3-hydroxyphenyl)ethyl]amino}cyclobut-3-ene-1,2-dione]	2070 ± 204
CN(C)c1cccc(CCNc2c(Nc3ccc(Cl)cc3)c(=O)c2=O)c1 [Compound 26, 3-[(4-Chlorophenyl)amino]-4-({2-[3-(dimethylamino)phenyl]ethyl}amino)cyclobut-3-ene-1,2-dione]	2100 ± 272
O=c1c(NCCc2ccncc2)c(Nc2ccc(Cl)cc2)c1=O [Compound 37, 3-[(4-Chlorophenyl)amino]-4-{[2-(pyridin-4-yl)ethyl]amino}cyclobut-3-ene-1,2-dione]	> 10000
O=c1c(NCCc2ccccn2)c(Nc2ccc(Cl)cc2)c1=O [Compound 36, 3-[(4-Chlorophenyl)amino]-4-{[2-(pyridin-2-yl)ethyl]amino}cyclobut-3-ene-1,2-dione]	958 ± 60
O=c1c(NCCc2ccccc2C(F)(F)F)c(Nc2ccc(Cl)cc2)c1=O [Compound 19, 3-[(4-Chlorophenyl)amino]-4-({2-[2-(trifluoromethyl)phenyl]ethyl}amino)cyclobut-3-ene-1,2-dione]	933
O=c1c(NCCc2ccc(Cl)c(Cl)c2)c(Nc2ccc(Cl)cc2)c1=O [Compound 41, 3-[(4-Chlorophenyl)amino]-4-{[2-(3,4-dichlorophenyl)ethyl]amino}cyclobut-3-ene-1,2-dione]	877 ± 31
O=c1c(NCCc2ccccc2Cl)c(Nc2ccc(Cl)cc2)c1=O [Compound 23, 3-[(4-Chlorophenyl)amino]-4-{[2-(2-chlorophenyl)ethyl]amino}cyclobut-3-ene-1,2-dione]	1290 ± 201
CCN(CC)c1ccc(CCNc2c(Nc3ccc(Cl)cc3)c(=O)c2=O)cc1 [Compound 48, 3-[(4-Chlorophenyl)amino]-4-({2-[4-(diethylamino)phenyl]ethyl}amino)cyclobut-3-ene-1,2-dione]	639 ± 247
O=c1c(NCCc2ccc(Cl)cc2Cl)c(Nc2ccc(Cl)cc2)c1=O [Compound 44, 3-[(4-Chlorophenyl)amino]-4-{[2-(2,4-dichlorophenyl)ethyl]amino}cyclobut-3-ene-1,2-dione]	1140 ± 183
N#Cc1ccc(Nc2c(NCCc3cccc(Cl)c3)c(=O)c2=O)cc1 [Compound 28, 4-[(2-{[2-(3-Chlorophenyl)ethyl]amino}-3,4-dioxocyclobut-1-en-1-yl)amino]benzonitrile]	460 ± 66
O=c1c(Nc2ccc(Cl)cc2)c(Nc2ccc(-c3ccccc3)cc2)c1=O [Compound 34, 3-(Biphenyl-4-ylamino)-4-[(4-chlorophenyl)amino]cyclobut-3-ene-1,2-dione]	1480 ± 297
O=c1c(NCCc2ccc(N3CCCCC3)cc2)c(Nc2ccc(Cl)cc2)c1=O [Compound 49, 3-[(4-Chlorophenyl)amino]-4-{[2-(4-piperidin-1-ylphenyl)ethyl]amino}cyclobut-3-ene-1,2-dione]	> 10000
O=c1c(Nc2ccc(Cl)cc2)c(Nc2cccc(-c3ccsc3)c2)c1=O [Compound 32, 3-[(4-Chlorophenyl)amino]-4-{[3-(thiophen-3-yl)phenyl]amino}cyclobut-3-ene-1,2-dione]	463 ± 56
O=c1c(NCCCc2ccccc2)c(Nc2ccc(Cl)cc2)c1=O [Compound 12, 3-[(4-Chlorophenyl)amino]-4-[(3-phenylpropyl)amino]cyclobut-3-ene-1,2-dione]	1040 ± 359
O=c1c(NCCc2ccc(N3CCCC3)cc2)c(Nc2ccc(Cl)cc2)c1=O [Compound 50, 3-[(4-Chlorophenyl)amino]-4-{[2-(4-pyrrolidin-1-ylphenyl)ethyl]amino}cyclobut-3-ene-1,2-dione]	> 10000
COc1ccc(CCNc2c(Nc3ccc(Cl)cc3)c(=O)c2=O)cc1 [Compound 18, 3-[(4-Chlorophenyl)amino]-4-{[2-(4-methoxyphenyl)ethyl]amino}cyclobut-3-ene-1,2-dione]	734 ± 310
CN(C)c1ccc(CCNc2c(Nc3ccc(Cl)cc3)c(=O)c2=O)cc1 [Compound 27, 3-[(4-Chlorophenyl)amino]-4-({2-[4-(dimethylamino)phenyl]ethyl}amino)cyclobut-3-ene-1,2-dione]	535 ± 135
O=c1c(NCCN2CCCCC2)c(Nc2ccc(Cl)cc2)c1=O [Compound 45, 3-[(4-Chlorophenyl)amino]-4-{[2-(piperidin-1-yl)ethyl]amino}cyclobut-3-ene-1,2-dione]	> 10000
Cc1ccccc1CCNc1c(Nc2ccc(Cl)cc2)c(=O)c1=O [Compound 35, 3-[(4-Chlorophenyl)amino]-4-{[2-(2-methylphenyl)ethyl]amino}cyclobut-3-ene-1,2-dione]	353 ± 37
COc1ccccc1CCNc1c(Nc2ccc(Cl)cc2)c(=O)c1=O [Compound 16, 3-[(4-Chlorophenyl)amino]-4-{[2-(2-methoxyphenyl)ethyl]amino}cyclobut-3-ene-1,2-dione]	1110 ± 88
O=c1c(NCCc2ccc(N3CCC3)cc2)c(Nc2ccc(Cl)cc2)c1=O [Compound 51, 3-{[2-(4-Azetidin-1-ylphenyl)ethyl]amino}-4-[(4-chlorophenyl)amino]cyclobut-3-ene-1,2-dione]	> 10000

Continued by falling IC50, values first:

IC50 [nM]	Structure (SMILES)
408 ± 94	O=c1c(Nc2ccc(Cl)cc2)c(Nc2cccc(-c3ccccc3)c2)c1=O [Compound 29, 3-(Biphenyl-3-ylamino)-4-[(4-chlorophenyl)amino]cyclobut-3-ene-1,2-dione]
408 ± 66	Cc1ccc(CCNc2c(Nc3ccc(Cl)cc3)c(=O)c2=O)cc1C [Compound 42, 3-[(4-Chlorophenyl)amino]-4-{[2-(3,4-dimethylphenyl)ethyl]amino}cyclobut-3-ene-1,2-dione]
399 ± 22	O=c1c(NCCc2cccs2)c(Nc2ccc(Cl)cc2)c1=O [Compound 39, 3-[(4-Chlorophenyl)amino]-4-{[2-(thiophen-2-yl)ethyl]amino}cyclobut-3-ene-1,2-dione]
360 ± 65	O=c1c(NCCc2cccc(C(F)(F)F)c2)c(Nc2ccc(Cl)cc2)c1=O [Compound 20, 3-[(4-Chlorophenyl)amino]-4-({2-[3-(trifluoromethyl)phenyl]ethyl}amino)cyclobut-3-ene-1,2-dione]
350 ± 39	COc1cccc(CCNc2c(Nc3ccc(Cl)cc3)c(=O)c2=O)c1 [Compound 17, 3-[(4-Chlorophenyl)amino]-4-{[2-(3-methoxyphenyl)ethyl]amino}cyclobut-3-ene-1,2-dione]
337 ± 21	O=c1c(NCCc2ccc(F)cc2)c(Nc2ccc(Cl)cc2)c1=O [Compound 22, 3-[(4-Chlorophenyl)amino]-4-{[2-(4-fluorophenyl)ethyl]amino}cyclobut-3-ene-1,2-dione]
333 ± 7	O=c1c(NCCc2ccc(Br)cc2)c(Nc2ccc(Cl)cc2)c1=O [Compound 38, 3-[(4-Chlorophenyl)amino]-4-{[2-(4-bromophenyl)ethyl]amino}cyclobut-3-ene-1,2-dione]
286 ± 28	O=c1c(NCCc2cccc(F)c2)c(Nc2ccc(Cl)cc2)c1=O [Compound 25, 3-[(4-Chlorophenyl)amino]-4-{[2-(3-fluorophenyl)ethyl]amino}cyclobut-3-ene-1,2-dione]
275 ± 13	O=c1c(NCCc2ccc(C(F)(F)F)cc2)c(Nc2ccc(Cl)cc2)c1=O [Compound 21, 3-[(4-Chlorophenyl)amino]-4-({2-[4-(trifluoromethyl)phenyl]ethyl}amino)cyclobut-3-ene-1,2-dione]
274 ± 33	O=c1c(NCCc2ccccc2F)c(Nc2ccc(Cl)cc2)c1=O [Compound 24, 3-[(4-Chlorophenyl)amino]-4-{[2-(2-fluorophenyl)ethyl]amino}cyclobut-3-ene-1,2-dione]
222 ± 35	O=c1c(NCCc2ccc(Cl)cc2)c(Nc2ccc(Cl)cc2)c1=O [Compound 13, 3-[(4-Chlorophenyl)amino]-4-{[2-(4-chlorophenyl)ethyl]amino}cyclobut-3-ene-1,2-dione]
210 ± 39	O=c1c(NCCc2ccccc2)c(Nc2ccc(Cl)cc2)c1=O [Compound 11, 3-[(4-Chlorophenyl)amino]-4-[(2-phenylethyl)amino]cyclobut-3-ene-1,2-dione]
205 ± 41	Cc1cccc(CCNc2c(Nc3ccc(Cl)cc3)c(=O)c2=O)c1 [Compound 14, 3-[(4-Chlorophenyl)amino]-4-{[2-(3-methylphenyl)ethyl]amino}cyclobut-3-ene-1,2-dione]
164 ± 30	Cc1ccc(CCNc2c(Nc3ccc(Cl)cc3)c(=O)c2=O)cc1 [Compound 15, 3-[(4-Chlorophenyl)amino]-4-{[2-(4-methylphenyl)ethyl]amino}cyclobut-3-ene-1,2-dione]
154 ± 14	O=c1c(Nc2ccc(Cl)cc2)c(Nc2cccc(-c3cscn3)c2)c1=O [Compound 31, 3-[(4-Chlorophenyl)amino]-4-{[3-(1,3-thiazol-4-yl)phenyl]amino}cyclobut-3-ene-1,2-dione]
